In PubChem BioAssay (NCI):
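GI50: concentration for 50% inhibition of growth. TGI is the concentration that stops growth completely.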

Assays:
Test in all cases: growth of human tumour cells (NCI), 384-well format
OVCAR-4 ovarian = test system: OVCAR-4 ovarian
HCT-116 colon = test system: HCT-116 colon
NCI/ADR-RES ovarian = test system: NCI/ADR-RES ovarian
MCF7 breast = test system: MCF7 breast
UACC-62 melanoma = test system: UACC-62 melanoma
OVCAR-3 ovarian = test system: OVCAR-3 ovarian
SK-MEL-2 melanoma = test system: SK-MEL-2 melanoma
SF-268 CNS = test system: SF-268 CNS
SNB-19 CNS = test system: SNB-19 CNS
CCRF-CEM leukemia = test system: CCRF-CEM leukemia
SW-620 colon = test system: SW-620 colon
HOP-62 NSCLC = test system: HOP-62 NSCLC
OVCAR-8 ovarian = test system: OVCAR-8 ovarian
A498 renal = test system: A498 renal
NCI-H23 lung = test system: NCI-H23 lung
SR leukemia = test system: SR leukemia
SF-295 CNS = test system: SF-295 CNS
TK-10 renal = test system: TK-10 renal
MOLT-4 leukemia = test system: MOLT-4 leukemia
SF-539 CNS = test system: SF-539 CNS
HOP-92 NSCLC = test system: HOP-92 NSCLC
NCI-H226 lung = test system: NCI-H226 lung
ACHN renal = test system: ACHN renal
UACC-257 melanoma = test system: UACC-257 melanoma
SK-OV-3 ovarian = test system: SK-OV-3 ovarian
SK-MEL-28 melanoma = test system: SK-MEL-28 melanoma
IGROV1 ovarian = test system: IGROV1 ovarian
A549 NSCLC = test system: A549 NSCLC
HT29 colon = test system: HT29 colon
NCI-H522 lung = test system: NCI-H522 lung
M14 melanoma = test system: M14 melanoma
RXF 393 renal = test system: RXF 393 renal
BT-549 breast = test system: BT-549 breast
HCT-15 colon = test system: HCT-15 colon
SK-MEL-5 melanoma = test system: SK-MEL-5 melanoma
OVCAR-5 ovarian = test system: OVCAR-5 ovarian
MALME-3M melanoma = test system: MALME-3M melanoma
786-0 renal = test system: 786-0 renal
HCC-2998 colon = test system: HCC-2998 colon
NCI-H322M lung = test system: NCI-H322M lung
RPMI-8226 leukemia = test system: RPMI-8226 leukemia
NCI-H460 NSCLC = test system: NCI-H460 NSCLC
LOX IMVI melanoma = test system: LOX IMVI melanoma
U251 glioblastoma = test system: U251 glioblastoma
SN12C renal = test system: SN12C renal
MDA-MB-435 melanoma = test system: MDA-MB-435 melanoma
CAKI-1 renal = test system: CAKI-1 renal
K-562 leukemia = test system: K-562 leukemia
UO-31 renal = test system: UO-31 renal
MDA-MB-231 breast = test system: MDA-MB-231 breast
COLO 205 colon = test system: COLO 205 colon
MDA-MB-468 breast = test system: MDA-MB-468 breast
DU-145 prostate = test system: DU-145 prostate
PC-3 prostate = test system: PC-3 prostate
KM12 colon = test system: KM12 colon
T-47D breast = test system: T-47D breast
HL-60(TB) leukemia = test system: HL-60(TB) leukemia

`Cn1ncnc1[C@@H]1c2n[nH]c(=O)c3cc(F)cc(c23)N[C@H]1c1ccc(F)cc1` showed a GI50 (OVCAR-4 ovarian) of over 100 µM, a TGI (OVCAR-4 ovarian) of over 100 µM and a GI50 (HCT-116 colon) of 74.9 µM. It also gave a TGI (HCT-116 colon) of over 100 µM, a GI50 (NCI/ADR-RES ovarian) of over 100 µM and a TGI (NCI/ADR-RES ovarian) of over 100 µM. The GI50 (MCF7 breast) was over 100 µM, the TGI (MCF7 breast) was over 100 µM and the GI50 (UACC-62 melanoma) was over 100 µM. For the same compound, the TGI (UACC-62 melanoma) was over 100 µM, the GI50 (OVCAR-3 ovarian) was over 100 µM and the TGI (OVCAR-3 ovarian) was over 100 µM. For the same compound, the GI50 (SK-MEL-2 melanoma) was over 100 µM, the TGI (SK-MEL-2 melanoma) was over 100 µM and the GI50 (SF-268 CNS) was over 100 µM. It also gave a TGI (SF-268 CNS) of over 100 µM, a GI50 (SNB-19 CNS) of over 100 µM and a TGI (SNB-19 CNS) of over 100 µM. For the same compound, the GI50 (CCRF-CEM leukemia) was 40.9 µM, the TGI (CCRF-CEM leukemia) was over 100 µM and the GI50 (SW-620 colon) was 70.9 µM. It also gave a TGI (SW-620 colon) of over 100 µM, a GI50 (HOP-62 NSCLC) of over 100 µM and a TGI (HOP-62 NSCLC) of over 100 µM. It also gave a GI50 (OVCAR-8 ovarian) of over 100 µM, a TGI (OVCAR-8 ovarian) of over 100 µM and a GI50 (A498 renal) of over 100 µM. The TGI (A498 renal) was over 100 µM, the GI50 (NCI-H23 lung) was over 100 µM and the TGI (NCI-H23 lung) was over 100 µM. It also gave a GI50 (SR leukemia) of 2.61 µM, a TGI (SR leukemia) of 11.6 µM and a GI50 (SF-295 CNS) of over 100 µM. The TGI (SF-295 CNS) was over 100 µM, the GI50 (TK-10 renal) was over 100 µM and the TGI (TK-10 renal) was over 100 µM. For the same compound, the GI50 (MOLT-4 leukemia) was 11.4 µM, the TGI (MOLT-4 leukemia) was 24.6 µM and the GI50 (SF-539 CNS) was over 100 µM. For the same compound, the TGI (SF-539 CNS) was over 100 µM, the GI50 (HOP-92 NSCLC) was over 100 µM and the TGI (HOP-92 NSCLC) was over 100 µM. For the same compound, the GI50 (NCI-H226 lung) was over 100 µM, the TGI (NCI-H226 lung) was over 100 µM and the GI50 (ACHN renal) was over 100 µM. It also gave a TGI (ACHN renal) of over 100 µM, a GI50 (UACC-257 melanoma) of over 100 µM and a TGI (UACC-257 melanoma) of over 100 µM. It also gave a GI50 (SK-OV-3 ovarian) of over 100 µM, a TGI (SK-OV-3 ovarian) of over 100 µM and a GI50 (SK-MEL-28 melanoma) of over 100 µM. The TGI (SK-MEL-28 melanoma) was over 100 µM, the GI50 (IGROV1 ovarian) was over 100 µM and the TGI (IGROV1 ovarian) was over 100 µM. The GI50 (A549 NSCLC) was over 100 µM, the TGI (A549 NSCLC) was over 100 µM and the GI50 (HT29 colon) was over 100 µM. For the same compound, the TGI (HT29 colon) was over 100 µM, the GI50 (NCI-H522 lung) was 97.7 µM and the TGI (NCI-H522 lung) was over 100 µM. The GI50 (M14 melanoma) was over 100 µM, the TGI (M14 melanoma) was over 100 µM and the GI50 (RXF 393 renal) was 52.3 µM. It also gave a TGI (RXF 393 renal) of over 100 µM, a GI50 (BT-549 breast) of over 100 µM and a TGI (BT-549 breast) of over 100 µM. It also gave a GI50 (HCT-15 colon) of over 100 µM, a TGI (HCT-15 colon) of over 100 µM and a GI50 (SK-MEL-5 melanoma) of over 100 µM. The TGI (SK-MEL-5 melanoma) was over 100 µM, the GI50 (OVCAR-5 ovarian) was over 100 µM and the TGI (OVCAR-5 ovarian) was over 100 µM. For the same compound, the GI50 (MALME-3M melanoma) was over 100 µM, the TGI (MALME-3M melanoma) was over 100 µM and the GI50 ([…]-0 renal) was over 100 µM. It also gave a TGI (786-0 renal) of over 100 µM, a GI50 (HCC-2998 colon) of 43.1 µM and a TGI (HCC-2998 colon) of over 100 µM. For the same compound, the GI50 (NCI-H322M lung) was over 100 µM, the TGI (NCI-H322M lung) was over 100 µM and the GI50 (RPMI-8226 leukemia) was 78.9 µM. The TGI (RPMI-8226 leukemia) was over 100 µM, the GI50 (NCI-H460 NSCLC) was 17.3 µM and the TGI (NCI-H460 NSCLC) was over 100 µM. The GI50 (LOX IMVI melanoma) was over 100 µM, the TGI (LOX IMVI melanoma) was over 100 µM and the GI50 (U251 glioblastoma) was over 100 µM. For the same compound, the TGI (U251 glioblastoma) was over 100 µM, the GI50 (SN12C renal) was over 100 µM and the TGI (SN12C renal) was over 100 µM. The GI50 (MDA-MB-435 melanoma) was over 100 µM, the TGI (MDA-MB-435 melanoma) was over 100 µM and the GI50 (CAKI-1 renal) was over 100 µM. For the same compound, the TGI (CAKI-1 renal) was over 100 µM, the GI50 (K-562 leukemia) was over 100 µM and the TGI (K-562 leukemia) was over 100 µM. The GI50 (UO-31 renal) was over 100 µM, the TGI (UO-31 renal) was over 100 µM and the GI50 (MDA-MB-231 breast) was over 100 µM. It also gave a TGI (MDA-MB-231 breast) of over 100 µM, a GI50 (COLO 205 colon) of over 100 µM and a TGI (COLO 205 colon) of over 100 µM. The GI50 (MDA-MB-468 breast) was 57.1 µM, the TGI (MDA-MB-468 breast) was over 100 µM and the GI50 (DU-145 prostate) was over 100 µM. For the same compound, the TGI (DU-145 prostate) was over 100 µM, the GI50 (PC-3 prostate) was over 100 µM and the TGI (PC-3 prostate) was over 100 µM. For the same compound, the GI50 (KM12 colon) was over 100 µM, the TGI (KM12 colon) was over 100 µM and the GI50 (T-47D breast) was over 100 µM. For the same compound, the TGI (T-47D breast) was over 100 µM, the GI50 (HL-60(TB) leukemia) was over 100 µM and the TGI (HL-60(TB) leukemia) was over 100 µM.
